In patent US7524823B2, “Macrolides” (Basilea Pharmaceutica AG, priority 2005, dated 2009):
Converted amounts (≈) assume the structure as drawn. Like-named read-outs stand apart in the source and are kept apart here.

Tests used:
Assay type in all cases: cell-based
[1] = test system: Haemophilus influenzae 12214; assay: MIC by broth microdilution (CAMHB + 5% Fildes enrichment, NCCLS)
Experimental: (§1) MIC values for non-anaerobes were obtained by broth microdilution using CAMHB (BBL) according to NCCLS guidelines (National Committee for Clinical Laboratory Standards. Methods for dilution antimicrobial susceptibility tests for bacteria that grow aerobically, 5th ed. Approved standard M7-A6. NCCLS, Wayne, Pa., 2003). Drugs were dissolved in DMSO prior to dispensing into 96-well microtitre plates; the concentration of DMSO in assay wells never exceeded 2% (v/v). CAMHB was supplemented with 5% (v/v) horse serum (Sigma, cat. no. H-1270) in lieu of laked horse blood for cultivation of Streptococcus pneumoniae, and with 5% (v/v) Fildes enrichment (BBL, cat. no. 220810) supernate in lieu of Haemophilus Test Medium and additives for cultivation of Haemophilus influenzae (Pankuch G A, Hoellman D B, Lin G, Bajaksouzian S, Jacobs M R, Appelbaum P C. Activity of HMR 3647 compared to those of five agents against Haemophilus influenzae and Moraxella catarrhalis by MIC determination and time-kill assay. Antimicrob. Agents Chemother. November 1998; 42(11): 3032-4). Activities expressed as the minimal inhibitory concentrations (MICs) (μg/ml) are given in the following Table 3, and the microorganisms used for testing are listed in Table 2 below.

[2] = test system: Haemophilus influenzae QK50; assay: as above
Experimental: as §1

Human neutrophils = assay: Modulation of neutrophil elastase production; details: test compound 50 μM; fMLP 0.1 μM, cytochalasin B 5 mg/L; blood from 3 donors
From the text: The neutrophil granulocyte is a key element of the inflammatory process. The neutrophils migrate to the site of inflammation and can be activated to release toxic products, including proteolytic enzymes such as elastase. […] Elastase is a major secreted product of activated neutrophils and is a major contributor to the destruction of tissue in inflammatory disease. Several bioassays based on the repression of secretion of elastase, have been described and used for the detection of anti-inflammatory products (Johansson, […]. Nat. Prod. 65: 32-41). […] The neutrophils are activated by addition of the bacterial product N-formyl methionyl-leucyl-phenylalanine (fMLP) and cytochalasin B, a stimulator of secretion. The amount of elastase secreted is determined by measuring the reaction of elastase with the chromogenic substrate succinyl-alanyl-alanyl-valyl-nitroanilide ([…]), which generates 4-nitroaniline after cleavage by elastase. […] Human neutrophils are isolated by applying whole heparinized blood to a Histopaque column and collecting the granulocytes by centrifugation. […] The total volume of the reaction mixture is 0.8 mL and concentrations specified are the final concentrations in the mixture. […] Neutrophil preparations from blood from 3 different donors were used in parallel. All samples were measured in duplicate. Results are given as % repression of activation of neutrophils in the following Table 5.

[3] = test system: Escherichia coli ATCC 25922; assay: MIC by broth microdilution (CAMHB, NCCLS); details: code C: Escherichia coli ATCC 25922
Experimental: as §1

[4] = test system: Staphylococcus aureus 1086; assay: MIC by broth microdilution (CAMHB, NCCLS); details: code B: Staphylococcus aureus 1086
Experimental: as §1

[5] = test system: Staphylococcus aureus ATCC 29213; assay: MIC by broth microdilution (CAMHB, NCCLS); details: code A: Staphylococcus aureus ATCC 29213
Experimental: as §1

[6] = test system: Propionibacterium acnes EG7NS; assay: MIC by anaerobic broth microdilution (WCB, NCCLS); details: 48 h
Experimental: (§2) MIC values towards strains of propionibacteria were obtained by broth microdilution using WCB (Anaerobe Broth MIC, Difco) according to NCCLS guidelines (National Committee for Clinical Laboratory Standards. Methods for anti-microbial susceptibility testing of anaerobic bacteria, 5th ed.; approved standard. NCCLS publication no. M11-A5. NCCLS, Wayne, Pa., 2001). Microtitre plates were loaded into 7-L GENbox anaerobic incubation jars (BioMérieux, cat. no. 96 128) fitted with anaerobic atmosphere generators (BioMérieux, cat. no. 96 124) and a Dry Anaerobic Indicator Strip (BBL, cat. no. 271051). Under these conditions, an O2 concentration <0.1% was achieved by 2.5 h, and a CO2 concentration >15% by 24 h. MIC values were read after incubation at 35-37° C. for 48 h (Table 3).

[7] = test system: Propionibacterium acnes SW101T; assay: MIC by anaerobic broth microdilution (WCB, NCCLS); details: code K: Propionibacterium acnes SW101T, 35-37° C., 48 h
Experimental: as §2

[8] = test system: Streptococcus pneumoniae 1/1; assay: MIC by broth microdilution (CAMHB + 5% horse serum, NCCLS); details: code D: Streptococcus pneumoniae 1/1
Experimental: as §1

[9] = test system: Streptococcus pneumoniae Tupelo; assay: as above; details: code F: Streptococcus pneumoniae Tupelo
Experimental: as §1

[10] = test system: Streptococcus pneumoniae SL199T; assay: as above; details: code E: Streptococcus pneumoniae SL199T
Experimental: as §1

[11] = Cutibacterium acnes, code I: Propionibacterium acnes EG7NS, anaerobic, 35-37° C., read-out: MIC
[12] = Cutibacterium acnes, read-out: MIC
[13] = code G: Haemophilus influenzae 12214, read-out: MIC
[14] = code H: Haemophilus influenzae QK50, read-out: MIC
[15] = code G: Haemophilus influenzae 12214
[16] = code H: Haemophilus influenzae QK50
[17] = code I: Propionibacterium acnes EG7NS, anaerobic, 35-37° C.

In the case of CC[C@H]1OC(=O)[C@H](C)[C@@H](O[C@H]2C[C@@](C)(OC)[C@@H](O)[C@H](C)O2)[C@H](C)[C@@H](O[C@@H]2O[C@H](C)C[C@H](N(C)C)[C@H]2O)[C@](C)(OC)C[C@@H](C)C(=O)[C@H](C)[C@H]2[C@H](SCCn3cnc4cccnc43)C(=O)O[C@@]21C [Example 4, (3S, 3aR, 4R, 6R, 8R, 9R, 10S, 11S, 12R, 15R, 15aS)-11-[[2,6-dideoxy-3-C-methyl-3-O-methyl-α-L-ribo-hexopyranosyl]oxy]-15-ethyldecahydro-8-methoxy-4,6,8,10,12,15a-hexamethyl-3-[[2-[3H-imidazo[4,5-b]pyridin-3-yl]ethyl]thio]-9-[[3,4,6-trideoxy-3-(dimethylamino)-β-D-xylo-hexopyranosyl]oxy]-2H-furo [2,3-c] oxacyclotetradecin-2,5,13 (3H,6H)-trione], the MIC ([1]; Haemophilus influenzae, 12214) is reported as 2 µg/mL, the MIC ([2]; Haemophilus influenzae, QK50) is reported as 2 µg/mL and the “Average repression of activation (%)” value (Human neutrophils) is reported as 31 ± 2.4%. For the same compound, the MIC ([3]; ATCC25922, read-out: MIC) was 32 µg/mL (≈ 33.7 µM), the MIC ([4]; read-out: MIC) was ≥ 32 µg/mL and the MIC ([5]; ATCC29213, read-out: MIC) was 1 µg/mL (≈ 1.05 µM). The MIC [6, 11] was 0.125 µg/mL (≈ 0.132 µM), the MIC [7, 12] was 4 µg/mL (≈ 4.21 µM) and the MIC ([8]; read-out: MIC) was ≤ 0.06 µg/mL. For the same compound, the MIC ([9]; read-out: MIC) was 0.5 µg/mL and the MIC ([10]; read-out: MIC) was 0.5 µg/mL.

With CC[C@H]1OC(=O)[C@H](C)[C@@H](O[C@H]2C[C@@](C)(OC)[C@@H](O)[C@H](C)O2)[C@H](C)[C@@H](O[C@@H]2O[C@H](C)C[C@H](N(C)C)[C@H]2O)[C@](C)(OC)C[C@@H](C)C(=O)[C@H](C)[C@H]2[C@H](SCCn3cnc4c(N)ncnc43)C(=O)O[C@@]21C [Example 1, (3S, 3aR, 4R, 6R, 8R, 9R, 10S, 11S, 12R, 15R, 15aS)-3-[[2-[6-amino-9H-purin-9-yl]ethyl]thio]-11-[[2,6-dideoxy-3-C-methyl-3-O-methyl-α-L-ribo-hexopyranosyl]oxy]-15-ethyldecahydro-8-methoxy-4,6,8,10,12,15a-hexamethyl-9-[[3,4,6-trideoxy-3-(dimethylamino)-β-D-xylo-hexopyranosyl]oxy]-2H-furo [2,3-c]oxacyclotetradecin-2,5,13 (3H,6H)-trione] the MIC [1, 13] was 1 µg/mL, the MIC [2, 14] was 0.5 µg/mL and the “Average repression of activation (%)” value (Human neutrophils) was 19 ± 0.6%. The MIC ([3]; ATCC25922, read-out: MIC) was ≥ 32 µg/mL, the MIC ([4]; read-out: MIC) was ≥ 32 µg/mL and the MIC ([5]; ATCC29213, read-out: MIC) was 1 µg/mL (≈ 1.04 µM). The MIC [6, 11] was ≤ 0.06 µg/mL, the MIC [7, 12] was 1 µg/mL (≈ 1.04 µM) and the MIC ([8]; read-out: MIC) was ≤ 0.06 µg/mL. It also gave an MIC ([9]; read-out: MIC) of 0.5 µg/mL and an MIC ([10]; read-out: MIC) of 0.125 µg/mL.

CC[C@H]1OC(=O)[C@H](C)[C@@H](O[C@H]2C[C@@](C)(OC)[C@@H](O)[C@H](C)O2)[C@H](C)[C@@H](O[C@@H]2O[C@H](C)C[C@H](N(C)C)[C@H]2O)[C@](C)(OC)C[C@@H](C)C(=O)[C@H](C)[C@H]2[C@H](SCCn3cnc4c(N)nc(N)nc43)C(=O)O[C@@]21C [Example 11] was tested, and the MIC [1, 15] was 2 µg/mL, the MIC [2, 16] was 2 µg/mL and the “Average repression of activation (%)” value (Human neutrophils) was 20 ± 0.97%. For the same compound, the MIC [3] was “>=32 μg/ml”, the MIC [4] was “>=32 μg/ml” and the MIC [5] was 8 µg/mL (≈ 8.16 µM). For the same compound, the MIC [6, 17] was “<=0.06 μg/ml”, the MIC [7] was 2 µg/mL (≈ 2.04 µM) and the MIC [8] was “<=0.06 μg/ml”. It also gave an MIC [9] of 1 µg/mL and an MIC [10] of 0.125 µg/mL.

With CC[C@H]1OC(=O)[C@H](C)[C@@H](O[C@H]2C[C@@](C)(OC)[C@@H](O)[C@H](C)O2)[C@H](C)[C@@H](O[C@@H]2O[C@H](C)C[C@H](N(C)C)[C@H]2O)[C@](C)(OC)C[C@@H](C)C(=O)[C@H](C)[C@H]2[C@H](SCCOCn3cnc4cccnc43)C(=O)O[C@@]21C [Example 2] the MIC [1, 15] was 4 µg/mL, the MIC [2, 16] was 8 µg/mL and the MIC [3] was >32 µg/mL. For the same compound, the MIC [4] was 8 µg/mL (≈ 8.17 µM), the MIC [5] was 2 µg/mL (≈ 2.04 µM) and the MIC [6, 17] was “<=0.06 μg/ml”. The MIC [7] was 16 µg/mL (≈ 16.3 µM), the MIC [8] was “<=0.06 μg/ml” and the MIC [9] was 0.5 µg/mL. It also gave an MIC [10] of 0.5 µg/mL.

In the case of CC[C@H]1OC(=O)[C@H](C)[C@@H](O[C@H]2C[C@@](C)(OC)[C@@H](O)[C@H](C)O2)[C@H](C)[C@@H](O[C@@H]2O[C@H](C)C[C@H](N(C)C)[C@H]2O)[C@](C)(OC)C[C@@H](C)C(=O)[C@H](C)[C@H]2[C@H](SCCn3cc(C)c(=O)[nH]c3=O)C(=O)O[C@@]21C [Example 21], the MIC [1, 15] is reported as 4 µg/mL, the MIC [2, 16] is reported as 4 µg/mL and the MIC [3] is reported as >32 µg/mL. For the same compound, the MIC [4] was >32 µg/mL, the MIC [5] was 2 µg/mL (≈ 2.09 µM) and the MIC [6, 17] was “<=0.06 μg/ml”. The MIC [7] was 4 µg/mL (≈ 4.18 µM), the MIC [8] was “<=0.06 μg/ml” and the MIC [9] was 2 µg/mL. The MIC [10] was 0.5 µg/mL.

For CC[C@H]1OC(=O)[C@H](C)[C@@H](O[C@H]2C[C@@](C)(OC)[C@@H](O)[C@H](C)O2)[C@H](C)[C@@H](O[C@@H]2O[C@H](C)C[C@H](N(C)C)[C@H]2O)[C@](C)(O)C[C@@H](C)C(=O)[C@H](C)[C@@H](O)[C@]1(C)O [Erythromycin, reference compound], the MIC [1, 13] was 4 µg/mL, the MIC [2, 14] was 2 µg/mL and the “Average repression of activation (%)” value (Human neutrophils) was 5 ± 0.30%. For the same compound, the MIC ([3]; ATCC25922, read-out: MIC) was > 32 µg/mL, the MIC ([4]; read-out: MIC) was > 32 µg/mL and the MIC ([5]; ATCC29213, read-out: MIC) was 0.5 µg/mL (≈ 0.681 µM). For the same compound, the MIC ([6]; Cutibacterium acnes, EG7NS) was 0.125 µg/mL (≈ 0.17 µM), the MIC [7, 12] was > 32 µg/mL and the MIC ([8]; read-out: MIC) was ≤ 0.06 µg/mL. For the same compound, the MIC ([9]; read-out: MIC) was 8 µg/mL and the MIC ([10]; read-out: MIC) was > 32 µg/mL.
